The values that follow come from publication PMC9525273 (Nature Communications, 2022).

What all share (format): cell-based, Plasmodium falciparum
Assay [1] deals with NF54^G358S-2 parasites. Kind of assay: P. falciparum proliferation assay (72 h, flow cytometry, SYBR Green I/MitoTracker). As for the experimental part:
(§1) For the NF54-based lines and Dd2-B2-PfATP4^G358S and its parent, assays were initiated with cultures containing predominantly ring-stage parasites with a parasitaemia of 0.3% and a haematocrit of 1%. All assays using NF54 were performed in culture media containing 10% O + human serum. The duration of the assays was 72 h and the concentration of DMSO was <0.5% (v/v). Serial dilutions of the test compounds were performed using a Tecan D300e digital dispenser, with parasite cultures added manually. Parasite survival was assessed by flow cytometry on an Intellicyt iQue3 (Essen Bioscience), with 1× SYBR Green I (Invitrogen) and 200 nM MitoTracker Deep Red FM (Invitrogen) used to stain the nucleus and the mitochondria in live parasites, respectively. The gating strategy used to quantify parasite survival, performed using FlowJo version 10 (FlowJo LLC.), is illustrated in Supplementary Fig. 9. IC50 and IC90 values were calculated by linear interpolation of the dose-response data.

For assay [2], the system named is NF54^G358S-1 parasites. The assay is described as above. As for the experimental part:
as §1

Assay [3] deals with NF54^CTL parasites. Described as above. The method, then: as §1
Assay [4] concerns NF54^WT parasites. Put plainly: microbe, parasite or virus in culture. The method, then:
as §1

Assay [5] has as its system gene-edited NF54 lines (NF54^CTL, NF54^G358S-1, NF54^G358S-2). Kind of assay: P. falciparum proliferation assay, statements on several edited NF54 lines. To be noted: all edited NF54 lines, including NF54CTL, vs NF54WT. As for the experimental part:
as §1, with “Two types of parasite proliferation assays were employed in this study, with both yielding highly consistent results. For” for “For”

The test system of assay [6] is parasite lines with a G358S mutation in PfATP4. Kind of assay: P. falciparum proliferation assays, statements on all lines with the G358S mutation. The settings on record: G358S lines vs PfATP4 wild-type controls. As for the experimental part: as §1, with “Two types of parasite proliferation assays were employed in this study, with both yielding highly consistent results. For” for “For”
(§2) For experiments with all other parasites, the effects of compounds of interest on parasite proliferation was measured in 96-well plates containing serial dilutions of the compounds in culture medium, with a fluorescent DNA-intercalating dye used to detect surviving parasites. The assays were initiated with erythrocytes infected with predominantly ring-stage parasites, and the starting parasitaemia and haematocrit were both 1%. […] Fluorescence was measured using a FLUOstar OPTIMA plate reader (BMG LABTECH), with OPTIMA version 2.20R2 and MARS Data Analysis Software version 3.01 R2 (BMG LABTECH).

For assay [7], the system named is Dd2-Polδ parasites. Kind of assay: P. falciparum proliferation assay (72 h, fluorescent DNA-intercalating dye). The method, then: (§3) For experiments with all other parasites, the effects of compounds of interest on parasite proliferation was measured in 96-well plates containing serial dilutions of the compounds in culture medium, with a fluorescent DNA-intercalating dye used to detect surviving parasites. The assays were initiated with erythrocytes infected with predominantly ring-stage parasites, and the starting parasitaemia and haematocrit were both 1%.

Assay [8] has as its system Dd2-Polδ-PfATP4^G358S parasites. The assay is described as above. As for the experimental part: as §3
For assay [9], the system named is MMV665949-selected Culture 1 (from Dd2-Polδ; not cloned). The description is as above. To be noted: n = 4. The method, then:
as §2

Each structure is given as a SMILES string. Values joined by “and” are separate entries in the source; they are usually repeats but may differ in a detail not shown here. Equal entries are not always repeated. “Also recorded” adds a separate entry of the source. Where two headings read alike, the source gives them in different places.

Consider `COc1nc(C(C)C)ccc1-c1cnc2sc(N3CCC(O)(CN)CC3)nn12` [INE963], for which the “FC (IC50)” value in assay [1] (NF54G358S-2 compared to NF54WT) is 1.4 fold; in [2] (NF54G358S-1 compared to NF54WT), 1.4 fold; in assay [3] (NF54CTL compared to NF54WT), 1.5 fold; in assay [4] (NF54WT, reference line), 1.0 fold. The “FC (IC90)” value in assay [1] (NF54G358S-2 compared to NF54WT) was determined as 1.4 fold; in [2] (NF54G358S-1 compared to NF54WT), 1.4 fold; in [3] (NF54CTL compared to NF54WT) it was 1.3 fold; in assay [4] (NF54WT, reference line) it was 1.0 fold. The IC50 in [1] (NF54G358S-2 parasites, individual experiments, read-out: IC50 values) was 1.11 nM and 0.93 nM and 1.44 nM; in [1] (Plasmodium falciparum, NF54, NF54G358S-2 parasites, individual experiments, read-out: IC50 values), 1.1 nM; in assay [1] (Plasmodium falciparum, NF54, NF54G358S-2 parasites, mean of the experiments, read-out: IC50 values, MEAN), 1.15 nM; in [2] (NF54G358S-1 parasites, individual experiments, read-out: IC50 values), 1.09 nM and 1.1 nM and 1.41 nM; in assay [2] (Plasmodium falciparum, NF54, NF54G358S-1 parasites, individual experiments, read-out: IC50 values), 0.91 nM; in [2] (Plasmodium falciparum, NF54, NF54G358S-1 parasites, mean of the experiments, read-out: IC50 values, MEAN) it was 1.13 nM. In addition, the 50% inhibitory concentration (IC50) in assay [3] (NF54CTL parasites, individual experiments, read-out: IC50 values) was 1.15 nM and 1.14 nM and 1.42 nM; in assay [3] (Plasmodium falciparum, NF54, NF54CTL parasites, individual experiments, read-out: IC50 values) it was 1.02 nM; in assay [3] (Plasmodium falciparum, NF54, NF54CTL parasites, mean of the experiments, read-out: IC50 values, MEAN), 1.18 nM; in assay [3] (Plasmodium falciparum, NF54, NF54CTL, 10% human serum, read-out: IC50 ± SEM) it was 1.2 ± 0.1 nM; in assay [4] (NF54WT parasites, individual experiments, read-out: IC50 values), 0.63 nM and 0.74 nM and 1.17 nM; in [4] (Plasmodium falciparum, NF54, NF54WT parasites, individual experiments, read-out: IC50 values) it was 0.7 nM. Also, the IC50 was 0.81 nM in assay [4] (Plasmodium falciparum, NF54, NF54WT parasites, mean of the experiments, read-out: IC50 values, MEAN) and 0.8 ± 0.1 nM in [4] (Plasmodium falciparum, NF54, NF54WT, 10% human serum, read-out: IC50 ± SEM). Moreover, the IC90 in assay [1] (NF54G358S-2 parasites, individual experiments, read-out: IC90 values) was 2.37 nM and 2.77 nM and 3.43 nM; in assay [1] (Plasmodium falciparum, NF54, NF54G358S-2 parasites, individual experiments, read-out: IC90 values) it was 2.11 nM; in assay [1] (Plasmodium falciparum, NF54, NF54G358S-2 parasites, mean of the experiments, read-out: IC90 values, MEAN) it was 2.7 nM; in [2] (NF54G358S-1 parasites, individual experiments, read-out: IC90 values), 2.82 nM and 2.85 nM and 3.37 nM; in assay [2] (Plasmodium falciparum, NF54, NF54G358S-1 parasites, individual experiments, read-out: IC90 values), 1.87 nM; in [2] (Plasmodium falciparum, NF54, NF54G358S-1 parasites, mean of the experiments, read-out: IC90 values, MEAN), 2.7 nM. Further, the IC90 in assay [3] (NF54CTL parasites, individual experiments, read-out: IC90 values) was 2.46 nM and 2.4 nM and 3.34 nM; in assay [3] (Plasmodium falciparum, NF54, NF54CTL parasites, individual experiments, read-out: IC90 values), 1.87 nM; in assay [3] (Plasmodium falciparum, NF54, NF54CTL parasites, mean of the experiments, read-out: IC90 values, MEAN) it was 2.5 nM; in assay [4] (NF54WT parasites, individual experiments, read-out: IC90 values) it was 1.68 nM and 1.36 nM and 1.75 nM and 2.98 nM; in assay [4] (Plasmodium falciparum, NF54, NF54WT parasites, mean of the experiments, read-out: IC90 values, MEAN) it was 1.9 nM. In [5], the “fold increase in IC50 value” is recorded as 1.4-1.5 fold. In addition, the “effect of the G358S mutation in PfATP4 on parasite susceptibility” value in [6] is listed as “no impact; also recorded: no effect”.
Consider `Oc1ccc(C(=C(Cl)Cl)c2ccc(O)cc2)cc1` [MMV665949], for which the IC50 was found to be 4270 nM in assay [7] (Dd2-Polδ, Supplementary Table 1, Set 2, read-out: Mean IC50 value ± SEM for growth inhibition); 4300 ± 700 nM in [7] (parental Dd2-Polδ, paired with MMV665949-selected Culture 1, n = 4, read-out: IC50); 4870 ± 880 nM in assay [8] (Dd2-Polδ-PfATP4G358S, Supplementary Table 1, Set 2, read-out: Mean IC50 value ± SEM for growth inhibition); 44000 ± 7000 nM in assay [9] (MMV665949-selected Culture 1, mean ± SEM, read-out: IC50). Besides, in assay [8] (Dd2-Polδ-PfATP4G358S vs Dd2-Polδ, mean ± SEM), the “IC50 fold higher than that of Dd2-Polδ parent” value is reported as “no significant change”. Also, the “IC50 fold higher than for parental Dd2-Polδ” value in [9] (MMV665949-selected Culture 1, paired experiments) worked out at 10.7 ± 2.0 fold.

One may read the IC50 as the concentration that inhibits the measured activity by half. The IC90 is the concentration needed for an effect of 90%.
